These results are taken from the METLIN SMRT retention time set (Domingo-Almenara et al. 2019).

The nature of this data set: gradient 5% acetonitrile 3 min, to 50% in 2 min, to 85% in 15 min, held 3 min, 100 µL/min. The conditions noted are these: column: Zorbax Extend-C18 2.1 x 50 mm; eluents: water / acetonitrile, 0.1% formic acid. The method, boiled down:
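Retention times of pure standards were taken from adduct peaks that were selected by computer and manually inspected. Over 3 months, mixtures of ~100 molecules were run by HPLC–quadrupole time-of-flight mass spectrometry in positive and negative ionization mode. The Zorbax Extend-C18 column (2.1 × 50 mm, 1.8 μm) ran at 100 μL/min in water and acetonitrile, each containing 0.1% formic acid, with 40 μL dead volume and 900 μL dwell volume.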
The molecule `CCOC(=O)N1CCC(NC(=O)CCc2cc3cc(OC)ccc3[nH]c2=O)CC1` came in with an RP-LC retention time of 663 s.

The molecule `CCOc1ccccc1C(=O)NCCS(=O)(=O)N1CCN(c2ccccn2)CC1` registered an RP-LC retention time of 597 s.

As to `CCc1noc(-c2ccc(-n3ncc(C(=O)NC4CC4)c3C)nc2)n1`, the RP-LC retention time was 792 s.

Regarding `CC(=O)Nc1ccc(C(=O)N2CCN(c3cc(-c4ccc(Cl)cc4)[nH]n3)CC2)cc1`, the RP-LC retention time is 708 s.

In turn, `CC(C)(C)c1cc(C(=O)Nc2cc(F)cc(F)c2)nc2ccnn12` displayed an RP-LC retention time of 1360 s.

`Cn1c(NC(=O)c2ccc(S(=O)(=O)N3CCOCC3)cc2)cc(=O)n(C)c1=O` had an RP-LC retention time of 612 s.

As to `CCN(CC)CCn1c(=O)c(Cc2ccc(OC)cc2)nc2ccccc21`, the RP-LC retention time was 720 s.

With `CC(C)c1nc(-c2ccc(OC3CCN(S(=O)(=O)c4cn(C)cn4)C3)cc2)no1` (stereo not drawn), the RP-LC retention time was determined as 853 s.

The molecule `O=C(c1ccc(Cl)s1)N1CC(F)(F)C[C@H]1COc1cccnc1` yielded an RP-LC retention time of 731 s.

In turn, `CC(C)c1ccc(-c2nc(C3CC(=O)N(c4ccc(F)cc4)C3)no2)cc1` (stereo not drawn) displayed an RP-LC retention time of 1180 s.

In turn, `COc1ccc(-c2cc(N3CCN(C(=O)Cc4ccc(Br)cc4)CC3)n[nH]2)cc1` showed an RP-LC retention time of 842 s.

`O=C(NCCc1cnc[nH]1)c1ccc2nc(CCc3ccccc3)oc2c1` registered an RP-LC retention time of 641 s.

On to `Cc1ccc(CN2C[C@@H](CO)[C@H](c3nc(C)no3)C2)cc1`, for which the RP-LC retention time turned out to be 592 s.

Molecule `CCCN1C(=O)COc2ccc(-c3noc(COc4ccc(OC)cc4)n3)cc21` had an RP-LC retention time of 1100 s.

Molecule `CC1CN(Cc2nc3c(c(=O)n(C)c(=O)n3C)n2Cc2ccc(Br)cc2)CC(C)O1` (stereo not drawn) yielded an RP-LC retention time of 755 s.

Molecule `COc1cc(NC(=O)N2CCC(c3cnn(-c4ccccc4)c3)CC2)cc(OC)c1OC` yielded an RP-LC retention time of 852 s.

For `C=CCN1C(=O)COc2ccc(-c3nc(NC(=O)c4ccccc4)sc3C)cc21`, the RP-LC retention time was determined as 1040 s.

In the case of `CC1=C(c2ccccc2)S(=O)(=O)N=C1N1CCCN(C(=O)NC2CCCCC2)CC1`, the RP-LC retention time stood at 817 s.

Consider `COc1ccc(C(CNC(=O)c2cc(=O)c3cc(Cl)ccc3o2)N(C)C)cc1` (stereo not drawn), for which the RP-LC retention time was 650 s.

`CCc1cccc(C)c1NC(=O)C1CCCN(c2nnc(C)c3c(C)n(-c4ccccc4)nc23)C1` (stereo not drawn) showed an RP-LC retention time of 775 s.

`Cc1ccc(CN2CCC3(CC2)CC(C)(O)CCO3)nc1` (stereo not drawn): the RP-LC retention time amounted to 556 s.

In the case of `Cn1nc(CN2CCCC2)c2c1CCN(S(=O)(=O)c1ccccc1C(F)(F)F)C2`, the RP-LC retention time turned out to be 655 s.

`CCOc1cc(C2NCCc3c2[nH]c2ccc(Cl)cc32)ccc1O` (stereo not drawn) came in with an RP-LC retention time of 671 s.

For `Cc1nc(-c2noc(-c3ccccc3)n2)cn1CC(=O)Nc1cccc(Cl)c1`, the RP-LC retention time was determined as 916 s.

Consider `Cc1c(CC(=O)NC2CC2)c(=O)n2nc(-c3ccccc3)nc2n1C`, for which the RP-LC retention time was found to be 651 s.

With `CN(C)c1nc2cc(C(=O)N3CCCCC3)sc2n1-c1ccccc1`, the RP-LC retention time amounted to 679 s.

Turning to `COCCNC(=O)N1CCCN(C2=NS(=O)(=O)C(c3ccc(Cl)cc3)=C2C)CC1`, the RP-LC retention time is 718 s.

The molecule `CC(C)N1C[C@H](Oc2ccccc2)[C@@H]1C1CCN(S(=O)(=O)c2cccnc2)CC1` registered an RP-LC retention time of 669 s.

With `Cc1ccc(-c2nc3cnccn3c2NCCC(=O)NCc2cccs2)cc1`, the RP-LC retention time was 700 s.

`COc1cccc(Nc2c(-c3ccc(Cl)cc3)nc3cnccn23)c1` returned an RP-LC retention time of 961 s.

As for `CC(=O)Nc1nc(-c2ccc(C)cc2C)cs1`, the RP-LC retention time amounted to 808 s.

As for `COc1ccc(S(=O)(=O)NCc2ccc3c(c2)CCN3C(=O)c2ccccc2)cc1OC`, the RP-LC retention time was determined as 824 s.

Consider `CCOC(=O)Oc1ccc2c(=O)c(Oc3cccc(OC)c3)coc2c1`, for which the RP-LC retention time turned out to be 928 s.

The molecule `CCc1ccc(-c2nc(C3CC(=O)N(c4ccc(F)c(Cl)c4)C3)no2)cc1` (stereo not drawn) came in with an RP-LC retention time of 1200 s.

Consider `Clc1cccc(CN2CCN(c3cnn4c(C5CC5)nnc4c3)CC2)c1`, for which the RP-LC retention time came to 750 s.

On to `Cc1cc2nn(CC(=O)Nc3ccccc3)c(=O)n2c(N2CCCC2)n1`, for which the RP-LC retention time came to 703 s.

`COc1ccc(NC(=O)COc2ccc(-c3nnc4n3CCCC4)cc2)cc1OC` had an RP-LC retention time of 626 s.

In the case of `Clc1ccc2nc3ccccc3cc2c1`, the RP-LC retention time amounted to 842 s.

With `Cn1cnc(S(=O)(=O)N2CCC(C(=O)NC3CCCCCC3)CC2)c1`, the RP-LC retention time was found to be 680 s.

In turn, `O=C(Nc1cccc(-c2nnc3n2CCCC3)c1)c1ccc2c(c1)OCO2` came in with an RP-LC retention time of 679 s.

The molecule `CC(C)c1ccc(C(=O)Nc2nc3ccccc3[nH]2)cc1` displayed an RP-LC retention time of 672 s.

`O=c1c2cc(-c3ccc(Cl)cc3)nn2ccn1Cc1nc(-c2cccc(F)c2)no1` displayed an RP-LC retention time of 1190 s.

Regarding `O=c1ccc(-c2ccccc2)nn1Cc1nc(-c2ccc3c(c2)OCO3)no1`, the RP-LC retention time was 959 s.

Take `COC1CN(c2cccc(F)c2)C12CCN(C(=O)C1(c3ccccc3)CC1)CC2` (stereo not drawn): the RP-LC retention time is 1120 s.

For `O=C(Cn1nc(Cc2ccncc2)c2ccccc2c1=O)NCCCN1CCc2ccccc2C1`, the RP-LC retention time came to 567 s.

Regarding `COc1cccc(Nc2c(-c3ccc(Br)cc3)nc3cnccn23)c1`, the RP-LC retention time was determined as 972 s.

Consider `CCN1c2ccccc2C(=O)NC12CCN(C(=O)c1ccc(C)cc1)CC2`, for which the RP-LC retention time turned out to be 804 s.

`CNC(=O)c1ccc(-c2nc3cc(NS(=O)(=O)c4cnc[nH]4)ccc3n2C)cc1` registered an RP-LC retention time of 548 s.

Turning to `O=C(C1CC(=O)N(c2n[nH]c3cccc(F)c23)C1)N1CCN(c2cccc(Cl)c2)CC1` (stereo not drawn), the RP-LC retention time is 837 s.

Turning to `CCn1c(CN(C)C(=O)Nc2ccc(Br)cc2F)nc2cc(C(=O)N(C)C)ccc21`, the RP-LC retention time is 650 s.

`Cc1ccc(NC(=O)C2CCCN2S(=O)(=O)c2cc3c(cc2Cl)NC(=O)CO3)c(C)c1` (stereo not drawn) returned an RP-LC retention time of 868 s.

In turn, `CC(C)n1cnc(S(=O)(=O)N2CCCC(C(=O)Nc3cccc4c3CCCC4)C2)c1` (stereo not drawn) yielded an RP-LC retention time of 865 s.

`O=C(CN1C(=O)C2CCCCN2c2ccc(S(=O)(=O)N3CCCC3)cc21)NC1CCCC1` (stereo not drawn): the RP-LC retention time is 761 s.

Regarding `CCOc1ccccc1CNC(=O)C1CCN(c2nccnc2Sc2cccc(C)c2)CC1`, the RP-LC retention time was 1170 s.

As for `CC(=O)N1CCC(CC(=O)N(C)CC2(C)CCOCC2)CC1`, the RP-LC retention time amounted to 594 s.

`COc1ccc(-c2nc(C3CC(=O)N(c4ccc(F)cc4)C3)no2)cc1` (stereo not drawn) showed an RP-LC retention time of 961 s.

As to `O=C(NC(c1nnc(-c2ccccc2)o1)c1ccccc1F)c1ccco1` (stereo not drawn), the RP-LC retention time was 851 s.

Consider `CCOC(=O)c1sc2nc(C)cc(C)c2c1N(C(C)=O)C(C)=O`, for which the RP-LC retention time worked out at 860 s.
